Laboratory results taken from patent publication US10233195B2, “Anti-fibrotic pyridinones” (InterMune, Inc., priority 2014, dated 2019).
pEC50, pIC50: −log10 of the molar value.

Legend:
[1] = system: Fibroblasts (primary human lung and dermal, HFL-1, 3T3 etc); test: Cell proliferation assay (BrdU incorporation); format: cell-based; conditions: HFL1, stimulant (LPA, TGFb, serum etc), 50% inhibition of the increase of BrdU incorporation
Description: Assay of Inhibitory Effect on Cell Proliferation (BrdU Incorporation)
Fibroblasts (primary human lung and dermal, HFL-1, 3T3 etc) were plated on a 96-well plate and serum starved for 24-48 hours. The media were then exchanged for media containing stimulants (LPA, TGFb, serum etc) and cultured further for 16-24 hours before BrdU addition. After culturing for another 8 hours, cells were washed with PBS and the amount of BrdU incorporated into the cells was assayed by absorbance at 450 nm using the Cell proliferation ELISA system (RPN250, Amersham LIFE SCIENCE). The difference between the amount of BrdU incorporated in the stimulant-added well and the amount of BrdU incorporated in the well containing no stimulant represented the amount of BrdU incorporation accelerated by stimulant. The increase of BrdU incorporation without the addition of test compounds was set as 100% and the concentration of compound with 50% inhibition in the increase of BrdU incorporation (IC50 value) was determined. The test compounds were added 0-30 min before stimulant addition.
Compounds of some embodiments were prepared according to synthetic methods described herein and assay data obtained for IC50 for BrdU inhibition. The assay data obtained is presented in Table 3, in which A=less than 50 μM, B=greater than or equal to 50 μM and less than or equal to 200 μM; and C=greater than 200 μM.

[2] = system: TGF-b induced Endothelin-1 production; test: ET-1 assay: inhibitory effect on TGF-b induced endothelin-1 production; format: cell-based; conditions: Homo sapiens, Fibroblast; fibroblasts, stimulant (TGFb, serum, LPA etc), ET-1 in media by ELISA, 4-parameter fit
Outline: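 Fibroblasts (primary human lung/dermal, HFL-1, 3T3) serum-starved 0-48 h, preincubated ~30 min with compound, then stimulated (TGFb, serum or LPA) for 16-48 h. Secreted ET-1 measured by ELISA; EC50 from 4-parameter logistic fit, with CC50 from ATPlite in the same wells.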

Row | SMILES | pIC50 [1] | pEC50 [2]
1 | O=C1COc2c(-c3ccc(F)cc3)cn(-c3ccc(OC(F)(F)F)cc3)c(=O)c2N1 [Compound 52] | < 3.70 | < 3.70
2 | CN1C(=O)COc2c(-c3ccc(F)cc3)cn(-c3ccc(OC(F)(F)F)cc3)c(=O)c21 [Compound 53] | < 3.70 | < 3.70
3 | Cn1cnc2c(-c3ccc(F)cc3)cn(-c3ccc(OC(F)(F)F)cc3)c(=O)c21 [Compound 58] | > 4.30 | > 4.30
4 | Cn1cc(-c2cn(-c3ccc(OC(F)(F)F)cc3)c(=O)c3ncn(C)c23)cn1 [Compound 59] | > 4.30 | > 4.30
5 | CCn1ccc2c(-c3cnn(C)c3)cn(-c3ccc(OC(F)(F)F)cc3)c(=O)c21 [Compound 60] | > 4.30 | > 4.30
6 | CCOc1ccc(-n2cc(Br)c3nccnc3c2=O)c(C)c1 [Compound 61] | > 4.30 | > 4.30
7 | CCOc1ccc(-n2cc(-c3cnn(C)c3)c3nccnc3c2=O)c(C)c1 [Compound 63] | > 4.30 | > 4.30
8 | O=C(c1ccccc1)n1cc(-c2ccc(=O)n(-c3ccccc3)c2)cn1 [Compound 68] | < 3.70 | < 3.70
9 | CS(=O)(=O)n1cc(-c2ccc(=O)n(-c3ccccc3)c2)cn1 [Compound 71] | < 3.70 | < 3.70
10 | CCOC(=O)n1cc(-c2ccc(=O)n(-c3ccccc3)c2)cn1 [Compound 73] | < 3.70 | > 4.30
11 | CC(C)NC(=O)n1cc(-c2ccc(=O)n(-c3ccccc3)c2)cn1 [Compound 75] | 3.70 to 4.30 | 3.70 to 4.30
12 | Cc1ccc(=O)n(CCc2ccccc2)c1 [Compound 80] | < 3.70 | 3.70 to 4.30
13 | O=c1cc(O)c(-c2ccc(F)cc2)cn1-c1ccc(OC(F)(F)F)cc1 [Compound 86] | > 4.30 | 3.70 to 4.30
14 | O=c1cc(Cl)c(-c2ccc(F)cc2)cn1-c1ccc(OC(F)(F)F)cc1 [Compound 87] | > 4.30 | > 4.30
15 | O=C1CNCCN1CCOc1cc(=O)n(-c2ccc(OC(F)(F)F)cc2)cc1-c1ccc(F)cc1 [Compound 101] | 3.70 to 4.30 | < 3.70
16 | CCOc1ccc(-n2cc(-c3ccc(F)cc3)c(OC)cc2=O)c(C)c1 [Compound 119] | > 4.30 | > 4.30
17 | COc1cc(=O)n(-c2ccc(OC(F)(F)F)cc2)cc1-c1cnn(C)c1 [Compound 120] | > 4.30 | > 4.30
18 | Cn1cc(-c2cn(-c3ccc(OC(F)(F)F)cc3)c(=O)cc2NCc2ccccc2)cn1 [Compound 123] | > 4.30 | > 4.30
19 | CN(Cc1ccccc1)c1cc(=O)n(-c2ccc(OC(F)(F)F)cc2)cc1-c1cnn(C)c1 [Compound 126] | > 4.30 | > 4.30
20 | Cn1cc(-c2cn(-c3ccc(OC(F)(F)F)cc3)c(=O)cc2NCc2c(F)cccc2F)cn1 [Compound 133] | 3.70 to 4.30 | 3.70 to 4.30
21 | COc1ccc(CNc2cc(=O)n(-c3ccc(OC(F)(F)F)cc3)cc2-c2cnn(C)c2)cc1 [Compound 134] | > 4.30 | > 4.30

Row | SMILES | pIC50 [1] | pEC50 [2]
22 | Cn1cc(-c2cn(-c3ccc(OC(F)(F)F)cc3)c(=O)cc2Oc2ccccc2)cn1 [Compound 153] | > 4.30 | > 4.30
23 | CCOc1ccc(Oc2cc(=O)n(-c3ccc(OC(F)(F)F)cc3)cc2-c2cnn(C)c2)cc1C#N [Compound 157] | < 3.70 | > 4.30
24 | Cn1cc(-c2cn(-c3ccc(OC(F)(F)F)cc3)c(=O)cc2NCc2cccnc2)cn1 [Compound 160] | > 4.30 | 3.70 to 4.30
25 | Cn1cc(-c2cn(-c3ccc(OC(F)(F)F)cc3)c(=O)cc2NCc2ccccn2)cn1 [Compound 161] | > 4.30 | > 4.30
26 | CCOc1ccc(-n2cc(-c3cnn(C)c3)c(OC)cc2=O)c(C)c1 [Compound 162] | > 4.30 | > 4.30
27 | CCOc1ccc(-n2cc(-c3ccc(F)cc3)c(C)cc2=O)c(C)c1 [Compound 175] | > 4.30 | 3.70 to 4.30
28 | COc1cc(-n2cc(-c3ccc(F)cc3)c(C)cc2=O)cc(OC)c1OC [Compound 180] | > 4.30 | 3.70 to 4.30
29 | Cc1cc(=O)n(-c2cccc3c2OCO3)cc1-c1ccc(F)cc1 [Compound 184] | > 4.30 | 3.70 to 4.30
30 | Cc1cc(=O)n(-c2cccc3c2OCCO3)cc1-c1ccc(F)cc1 [Compound 185] | > 4.30 | 3.70 to 4.30
31 | Cc1cc(=O)n(-c2cccc(NC(N)=O)c2)cc1-c1ccc(F)cc1 [Compound 188] | > 4.30 | > 4.30
32 | Cc1cc(=O)n(-c2cccc(C(N)=O)c2)cc1-c1ccc(F)cc1 [Compound 189] | < 3.70 | < 3.70
33 | Cc1cc(=O)n(-c2ccc(OC(F)(F)F)cc2)cc1-c1cccc(F)c1 [Compound 192] | > 4.30 | > 4.30
34 | Cc1cc(=O)n(-c2ccc(OC(F)(F)F)cc2)cc1-c1ccc(F)c(Cl)c1 [Compound 195] | > 4.30 | > 4.30
35 | Cc1cc(=O)n(-c2ccc(OC(F)(F)F)cc2)cc1-c1ccc(F)c(F)c1 [Compound 196] | > 4.30 | 3.70 to 4.30
36 | Cc1cc(=O)n(-c2ccc(OC(F)(F)F)cc2)cc1-c1ccc(Cl)c(F)c1 [Compound 198] | > 4.30 | 3.70 to 4.30
37 | Cc1cc(=O)n(-c2ccc(OC(F)(F)F)cc2)cc1-c1ccc2c(c1)OCCO2 [Compound 201] | > 4.30 | 3.70 to 4.30
38 | Cc1cc(=O)n(-c2ccc(OC(F)(F)F)cc2)cc1-c1ccc2c(c1)OCO2 [Compound 202] | > 4.30 | 3.70 to 4.30
39 | Cc1cc(=O)n(-c2ccc(OC(F)(F)F)cc2)cc1-c1cccc2c1OCO2 [Compound 203] | > 4.30 | > 4.30
40 | Cc1cc(=O)n(-c2ccc(OC(F)(F)F)cc2)cc1-c1cccc2c1OCCO2 [Compound 204] | > 4.30 | > 4.30
41 | Cc1cc(=O)n(-c2ccc(OC(F)(F)F)cc2)cc1-c1ccc(-c2cncs2)cc1 [Compound 206] | > 4.30 | 3.70 to 4.30
42 | Cc1cc(=O)n(-c2ccc(OC(F)(F)F)cc2)cc1-c1cccc2c1OC(C)(C)O2 [Compound 207] | > 4.30 | 3.70 to 4.30

Row | SMILES | pIC50 [1] | pEC50 [2]
43 | Cc1cc(=O)n(-c2ccc(OC(F)(F)F)cc2)cc1-c1ccc2c(c1)OC(F)(F)O2 [Compound 208] | 3.70 to 4.30 | 3.70 to 4.30
44 | Cc1cc(=O)n(-c2ccc(OC(F)(F)F)cc2)cc1-c1ccc2c(c1)NC(=O)CO2 [Compound 209] | > 4.30 | > 4.30
45 | Cc1cc(=O)n(-c2ccc(OC(F)(F)F)cc2)cc1-c1ccc2c(c1)N(C)C(=O)CO2 [Compound 210] | < 3.70 | > 4.30
46 | Cc1ccc(-n2cc(-c3ccc(F)cc3)c(C)cc2=O)cc1 [Compound 216] | > 4.30 | 3.70 to 4.30
47 | Cc1cc(=O)n(-c2ccc(OC(F)(F)F)cc2)cc1-c1cn[nH]c1 [Compound 218] | > 4.30 | > 4.30
48 | CCOc1ccc(-n2cc(-c3cn[nH]c3)c(C)cc2=O)c(C)c1 [Compound 219] | < 3.70 | 3.70 to 4.30
49 | Cc1cc(=O)n(-c2ccc(Cl)cc2C)cc1-c1cnn(C)c1 [Compound 229] | > 4.30 | 3.70 to 4.30
50 | Cc1cc(=O)n(-c2ccc(OC(C)C)cc2C)cc1-c1cnn(C)c1 [Compound 234] | < 3.70 | < 3.70
51 | Cc1cc(=O)n(-c2ccc(OC(F)(F)F)cc2)cc1-c1c(C)nn(C)c1C [Compound 237] | > 4.30 | 3.70 to 4.30
52 | Cc1cc(=O)n(-c2ccc(OC(F)(F)F)cc2)cc1-c1cn(C)nc1C(F)(F)F [Compound 238] | > 4.30 | 3.70 to 4.30
53 | Cc1cc(=O)n(-c2ccc(OC(F)(F)F)cc2)cc1-c1ccnnc1 [Compound 243] | < 3.70 | 3.70 to 4.30
54 | Cc1cc(=O)n(-c2ccc(OC(F)(F)F)cc2)cc1-c1ccc2scnc2c1 [Compound 251] | > 4.30 | > 4.30
55 | Cc1cc(=O)n(-c2ccc(OC(F)(F)F)cc2)cc1-c1ccc2nccn2c1 [Compound 252] | 3.70 to 4.30 | 3.70 to 4.30
56 | Cc1cc(=O)n(-c2ccc(OC(F)(F)F)cc2)cc1-c1ccc2ocnc2c1 [Compound 254] | > 4.30 | > 4.30
57 | Cc1cc(=O)n(-c2ccc(OC(F)(F)F)cc2)cc1-c1ccc2ccn(C)c2c1 [Compound 258] | > 4.30 | > 4.30
58 | Cc1cc(=O)n(-c2ccc(OC(F)(F)F)cc2)cc1-c1ccc2nonc2c1 [Compound 259] | > 4.30 | 3.70 to 4.30
59 | Cc1cc(=O)n(-c2ccc(OC(F)(F)F)cc2)cc1-c1ccc2ncsc2c1 [Compound 260] | > 4.30 | 3.70 to 4.30
60 | Cc1cc(=O)n(-c2ccc(OC(F)(F)F)cc2)cc1-c1cccc2scnc12 [Compound 261] | > 4.30 | < 3.70
61 | Cc1cc(=O)n(-c2ccc(OC(F)(F)F)cc2)cc1-c1cscn1 [Compound 262] | > 4.30 | 3.70 to 4.30
